Measured values from paper PMC10111022, “Comparison of pharmacological inhibitors of lysine-specific demethylase 1 in glioblastoma stem cells reveals inhibitor-specific efficacy profiles” (Frontiers in Neurology, 2023).
pIC50: −log10 of the molar value.

What was measured:
MDA-GSC 262 = experiment: Cell viability dose response (IC50), MDA-GSC 262; type: cell-based; conditions: Homo sapiens, mean of three independent experiments
Description: (§1) MDA-GSCs were plated at 50,000 cells/well into 12-well plates at and allowed to grow for 5 days until neurospheres were formed. The cells were then treated with either TCP, GSK-LSD1, or RN-1 at various concentrations for 5 days. Next, the cells were collected and neurospheres were dissociated with Accutase (BioLegend; San Diego, CA). Cell viability was determined using a trypan dye exclusion assay and read with the Vi-Cell XR Cell Viability Analyzer (Beckman Coulter; Brea, CA). NHAs were plated at 50,000 cells/well into 12-well plates and allowed to adhere overnight. The following day, NHAs were treated with the LSD1 inhibitors. After 5 days, the cells were detached using TrypLE and assessed with the trypan blue dye exclusion assay.
(§2) The alamarBlue cell viability (Bio-Rad; Hercules, CA) was performed on the MDA-GSCs according to the manufacturer’s protocol. The cells were plated at 5,000 cell/well into a 96-well plate and allowed to grow for 5 days. After 5 days, the alamarBlue reagent was added and fluorescence was measured with the Synergy 2 (BioTek Instruments; Winooski, VT) plate reader according to the manufacturer’s protocol.

MDA-GSC 311 = experiment: Cell viability dose response (IC50), MDA-GSC 311; type: cell-based; conditions: Homo sapiens, mean of three independent experiments
Description: as §1, §2

MDA-GSC 20 = experiment: Cell viability dose response (IC50), MDA-GSC 20; type: cell-based; conditions: Homo sapiens, mean of three independent experiments
Description: as §1, §2

MDA-GSC 17 = experiment: Cell viability dose response (IC50), MDA-GSC 17; type: cell-based; conditions: Homo sapiens, mean of three independent experiments
Description: as §1, §2

MDA-GSC 6–27 = experiment: Cell viability dose response (IC50), MDA-GSC 6–27; type: cell-based; conditions: Homo sapiens, mean of three independent experiments
Description: as §1, §2

MDA-GSC 7–11 = experiment: Cell viability dose response (IC50), MDA-GSC 7–11; type: cell-based; conditions: Homo sapiens, mean of three independent experiments
Description: as §1, §2

MDA-GSC 23 = experiment: Cell viability dose response (IC50), MDA-GSC 23; type: cell-based; conditions: Homo sapiens, mean of three independent experiments
Description: as §1, §2

MDA-GSC 8–11 = experiment: Cell viability dose response (IC50), MDA-GSC 8–11; type: cell-based; conditions: Homo sapiens, mean of three independent experiments
Description: as §1, §2

MDA-GSC 7–2 = experiment: Cell viability dose response (IC50), MDA-GSC 7–2; type: cell-based; conditions: Homo sapiens, mean of three independent experiments
Description: as §1, §2

NHA = experiment: Cell viability dose response (IC50), normal human astrocytes; type: cell-based; conditions: for pIC50: Homo sapiens, Astrocyte, mean of three independent experiments; for effect on NHA viability: NHA treated at the maximum concentration tested for each compound
Description: as §1, §2

MDA-GSC lines = experiment: Cell viability across the panel of nine MDA-GSC lines; type: cell-based, Human; conditions: for concentrations at which MDA-GSC viability was reduced: many/several MDA-GSC lines, dose response curves Figure 2
Description: as §1, §2

[1] = parameters: method as in PMID 34786883, PMID 33052756; conditions: safety studies; cited from earlier work
[2] = parameters: method as in personal communications, Salarius Pharmaceuticals; conditions: ref personal communications, Salarius Pharmaceuticals; cited from earlier work
MDA-GSC20 = experiment: qPCR of resistance-related genes, MDA-GSC20; type: cell-based, Human; conditions: MDA-GSC20 (resistant)
Description: (§3) Total RNA was extracted using RNeasy Plus Mini Kit (Qiagen; Hilden, Germany) following the manufacturer’s protocol. cDNA was synthesized with the iScript cDNA synthesis kit (Bio-Rad; Hercules, CA), qPCR was performed using Forget-Me-Not EvaGreen qPCR kit (Biotium; Fremont, CA), and samples were analyzed with the LightCycler96 (Roche; Basel, Switzerland). Cq values were normalized to PPIA and reported as relative fold change from untreated control.

MDA-GSC7-2 = experiment: qPCR of resistance-related genes, MDA-GSC7-2; type: cell-based, Human; conditions: MDA-GSC7-2 (sensitive)
Description: as §3

MDA-GSC8-11 = experiment: qPCR of resistance-related genes, MDA-GSC8-11; type: cell-based, Human; conditions: MDA-GSC8-11 (resistant)
Description: as §3

MDA-GSC17 = experiment: qPCR of resistance-related genes, MDA-GSC17; type: cell-based, Human; conditions: MDA-GSC17 (sensitive)
Description: as §3

Structure (SMILES)	pIC50 (MDA-GSC 262)	pIC50 (MDA-GSC 311)	pIC50 (MDA-GSC 20)	pIC50 (MDA-GSC 17)	pIC50 (MDA-GSC 6–27)	pIC50 (MDA-GSC 7–11)	pIC50 (MDA-GSC 23)	pIC50 (MDA-GSC 8–11)	pIC50 (MDA-GSC 7–2)	pIC50 (NHA; NHA)	concentrations at which MDA-GSC viability was reduced (MDA-GSC lines)	neurotoxic effects in human trials [1]	effect on NHA viability (NHA)	also measured
CN1CCN(C(=O)[C@H](CCCN[C@@H]2C[C@H]2c2ccc(F)cc2)NC(=O)c2ccc(-n3ccnn3)cc2)CC1 [IMG-7289]	4.39	< 3.90	4.17	4.06	4.40	4.63	4.47	4.25	4.49	4.42	< 50 µM	have not revealed any neurotoxic effects		
N[C@H]1CC[C@H](N[C@@H]2C[C@H]2c2ccccc2)CC1 [ORY-1001]	4.03	< 3.82	4.26	3.97	4.14	4.19	4.01	4.19	4.06	4.02	50 to 90 µM	have not revealed any neurotoxic effects		
Nc1nnc(CN[C@@H]2C[C@H]2c2ccc(OCc3ccccc3)cc2)o1 [ORY-2001]	< 4.30	4.34	< 4.30	< 4.30	< 4.30	4.38	4.32	< 4.30	< 4.30	< 4.30				pIC50 (MDA-GSC lines; Homo sapiens, majority of MDA-GSCs, maximum dose 50 μM): < 4.30
CN1CCN(C(=O)CN[C@H]2C[C@@H]2c2ccc(OCc3ccccc3)cc2)CC1 [RN-1]	< 4.30	< 4.30	4.40	4.65	4.62	< 4.30	< 4.30	< 4.30	< 4.30	< 4.30	20 to 50 µM		minimal effect	
C/C(=N\NC(=O)c1cccc(S(=O)(=O)N2CCN(C)CC2)c1)c1cc(Cl)ccc1O [SP-2577]	5.06	4.63	< 4.60	4.80	5.17	5.25	4.77	4.91	5.01	5.64	less than 10 μM			activity in noncancerous cells, NHA (NHA; NHA, Figure 2J): strong activity; crossing of the blood brain barrier [2]: has not been found to cross the blood brain barrier
NC1CC1c1ccccc1 (stereo not shown) [TCP, tranylcypromine]	2.39	2.46	2.33	2.66	< 2.30	< 2.30	2.57	< 2.30	2.57	< 2.30			minimal effect	effects on cell viability (MDA-GSC lines; MDA-GSC lines, Figure 2C): not seen until mM concentrations; expression of resistance-related genes (FTH1, RAB39B, HKDC1, FAM213A) (MDA-GSC20): consistently increased; expression of resistance-related genes (FTH1, RAB39B, HKDC1, FAM213A) (MDA-GSC7-2): only minimal effects; expression of resistance-related genes (MDA-GSC8-11): increase in two of the resistance related genes; expression of resistance-related genes (MDA-GSC17): did not significantly increase
